Results from PMC8351594, “Design of Novel Amphipathic α-Helical Antimicrobial Peptides with No Toxicity as Therapeutics against the Antibiotic-Resistant Gram-Negative Bacterial Pathogen, Acinetobacter Baumannii” (Journal of medicinal chemistry and drug design, 2019).
Converted amounts (≈) assume the structure as drawn. Square brackets hold non-standard residues; d marks the D form. Peptide text beside a SMILES is read from it. Dab = NCC[C@H](N)C(=O)O; Dap = NC[C@H](N)C(=O)O

Assays:
[1] = tested on: Acinetobacter baumannii MB9941; conditions: Mueller-Hinton medium, 37°C, 24 h, inoculum 5 × 10^5 CFU/mL; MIC based on three sets of determinations
Experimental: (§1) The A. baumannii strains used in this study consisted of seven strains resistant to Polymyxin B and Colistin (antibiotics of last resort) obtained from MERCK (M89941, M89949, M89951, M89952, M89953, M89955 and M89963). The MICGM in this case is the geometric mean MIC from the seven Acinetobacter baumannii strains used in this study.
(§2) The minimal inhibitory concentration (MIC) is defined as the lowest peptide concentration that inhibited bacterial growth. MICs were measured by a standard microtiter dilution method in Mueller Hinton (MH) medium. Briefly, cells were grown overnight at 37°C in MH broth and were diluted in the same medium. […] The plates were incubated at 37°C for 24h, and the MICs were determined. The MICGM is the geometric mean of the number of MIC values.

[2] = tested on: Acinetobacter baumannii MB9949; conditions: Mueller-Hinton medium, 37°C, 24 h, inoculum 5 × 10^5 CFU/mL; MIC based on three sets of determinations
Experimental: as §1, §2

[3] = tested on: Acinetobacter baumannii MB9951; conditions: Mueller-Hinton medium, 37°C, 24 h, inoculum 5 × 10^5 CFU/mL; MIC based on three sets of determinations
Experimental: as §1, §2

[4] = tested on: Acinetobacter baumannii MB9952; conditions: Mueller-Hinton medium, 37°C, 24 h, inoculum 5 × 10^5 CFU/mL; MIC based on three sets of determinations
Experimental: as §1, §2

[5] = tested on: Acinetobacter baumannii MB9953; conditions: Mueller-Hinton medium, 37°C, 24 h, inoculum 5 × 10^5 CFU/mL; MIC based on three sets of determinations
Experimental: as §1, §2

[6] = tested on: Acinetobacter baumannii MB9955; conditions: Mueller-Hinton medium, 37°C, 24 h, inoculum 5 × 10^5 CFU/mL; MIC based on three sets of determinations
Experimental: as §1, §2

[7] = tested on: Acinetobacter baumannii MB9963; conditions: Mueller-Hinton medium, 37°C, 24 h, inoculum 5 × 10^5 CFU/mL; MIC based on three sets of determinations
Experimental: as §1, §2

human red blood cells [8] = test: Hemolytic activity (HC50) determination; conditions: 1% human erythrocytes in PBS pH 7.4, 37°C, 18 h, 12 concentrations up to 1000 μg/mL, hemoglobin release at 570 nm, average of 3 replicates; estimated by extrapolation when 50% hemolysis not observed at 1000 μg/mL
Experimental: (§3) Peptide samples (concentrations determined by amino acid analysis) were added to 1% human erythrocytes in phosphate-buffered saline (100 mM NaCl, 80 mM Na2HPO4, 20 mM NaH2PO4, pH 7.4) and the reaction mixtures were incubated at 37°C for 18h in microtiter plates. Two-fold serial dilutions of the peptide samples were carried out. This determination was made by withdrawing aliquots from the hemolysis assays and removing unlysed erythrocytes by centrifugation (800 × g). Hemoglobin release was determined spectrophotometrically at 570 nm. The control for 100% hemolysis was a sample of erythrocytes treated with water. The control for no release of hemoglobin was a sample of 1% erythrocytes without any peptide added. […] The hemolytic activity HC50 is the peptide concentration that causes 50% hemolysis of erythrocytes after 18h. HC50 was determined from a plot of percent lysis versus peptide concentration (μM) using 12 different concentrations up to 1000 micrograms per ml for 18h at 37°C. The average of 3 replicates is used with an average variance of less than 4%. Fresh human blood was obtained from Vitalant, Denver, CO, USA.
(§4) In order to determine that we were able to eliminate hemolysis of human red blood cells, we used the most rigorous test of hemolytic activity (18h at 37°C and up to 1000 μg/mL or >350 μM of AMP). […] The HC50 value is estimated when 50% hemolysis is not observed at 1000 μg/mL by extrapolation of the plots observed in figure 3.

human red blood cells [9] = tested on: human red blood cells
Experimental: as §3, §4

Structure (SMILES)	MIC MB9941 [1]	MIC MB9949 [2]	MIC MB9951 [3]	MIC MB9952 [4]	MIC MB9953 [5]	MIC MB9955 [6]	MIC MB9963 [7]	HC50 (concentration of peptide that results in 50% hemolysis) (human red blood cells [8])	lysis of human red blood cells at 1000 μg/mL (human red blood cells [9])
CC(=O)N[C@H](CCCCN)C(=O)N[C@H](CC(C)C)C(=O)N[C@H](CCCCN)C(=O)N[C@H](CO)C(=O)N[C@H](CC(C)C)C(=O)N[C@H](CC(C)C)C(=O)N[C@H](CCCCN)C(=O)N[C@@H](C(=O)N[C@H](CC(C)C)C(=O)N[C@H](CO)C(=O)N[C@H](C)C(=O)N[C@H](C)C(=O)N[C@H](CCCCN)C(=O)N[C@H](CCCCN)C(=O)N[C@H](CCCCN)C(=O)N[C@H](CCCCN)C(=O)N[C@H](CC(C)C)C(=O)N[C@H](C)C(=O)N[C@@H](C(=O)N[C@H](CC(C)C)C(=O)N[C@H](CC(C)C)C(=O)N[C@H](CCCCN)C(=O)N[C@H](C)C(=O)N[C@H](CC(C)C)C(=O)N[C@H](CO)C(=O)N[C@H](CO)C(N)=O)[C@H](C)O)[C@H](C)O [D103(Lys^1Ser^26-5 Lys-2)] (Ac-[dK][dL][dK][dS][dL][dL][dK][dT][dL][dS][dA][dA][dK][dK][dK][dK][dL][dA][dT][dL][dL][dK][dA][dL][dS][dS]-NH2)	0.7 µM (≈ 1.98 µg/mL)	0.7 µM (≈ 1.98 µg/mL)	0.7 µM (≈ 1.98 µg/mL)	0.7 µM (≈ 1.98 µg/mL)	0.7 µM (≈ 1.98 µg/mL)	0.7 µM (≈ 1.98 µg/mL)	0.7 µM (≈ 1.98 µg/mL)	134.9 µM	–
CC(=O)N[C@H](CCCCN)C(=O)N[C@H](CC(C)C)C(=O)N[C@@H](CCN)C(=O)N[C@H](CO)C(=O)N[C@H](CC(C)C)C(=O)N[C@H](CC(C)C)C(=O)N[C@@H](CCN)C(=O)N[C@@H](C(=O)N[C@H](CC(C)C)C(=O)N[C@H](CO)C(=O)N[C@@H](CCN)C(=O)N[C@H](C)C(=O)N[C@H](CCCCN)C(=O)N[C@H](C)C(=O)N[C@H](C)C(=O)N[C@H](CCCCN)C(=O)N[C@H](CC(C)C)C(=O)N[C@@H](CCN)C(=O)N[C@@H](C(=O)N[C@H](CC(C)C)C(=O)N[C@H](CC(C)C)C(=O)N[C@@H](CCN)C(=O)N[C@H](C)C(=O)N[C@H](CC(C)C)C(=O)N[C@H](CO)C(=O)N[C@H](CO)C(N)=O)[C@H](C)O)[C@H](C)O [D102(Lys^1Ser^26-5 Dab-1)] (Ac-[dK][dL][Dab][dS][dL][dL][Dab][dT][dL][dS][Dab][dA][dK][dA][dA][dK][dL][Dab][dT][dL][dL][Dab][dA][dL][dS][dS]-NH2)	0.4 µM (≈ 1.07 µg/mL)	0.7 µM (≈ 1.88 µg/mL)	0.7 µM (≈ 1.88 µg/mL)	0.7 µM (≈ 1.88 µg/mL)	1.4 µM (≈ 3.76 µg/mL)	0.7 µM (≈ 1.88 µg/mL)	0.7 µM (≈ 1.88 µg/mL)	>708 µM	–
CC(=O)N[C@H](CCCCN)C(=O)N[C@H](CC(C)C)C(=O)N[C@H](CCCCN)C(=O)N[C@H](CO)C(=O)N[C@H](CC(C)C)C(=O)N[C@H](CC(C)C)C(=O)N[C@H](CCCCN)C(=O)N[C@@H](C(=O)N[C@H](CC(C)C)C(=O)N[C@H](CO)C(=O)N[C@H](C)C(=O)N[C@H](C)C(=O)N[C@H](CCCCN)C(=O)N[C@H](CCCCN)C(=O)N[C@H](CCCCN)C(=O)N[C@H](CCCCN)C(=O)N[C@H](CC(C)C)C(=O)N[C@H](C)C(=O)N[C@@H](C(=O)N[C@H](CC(C)C)C(=O)N[C@H](CC(C)C)C(=O)N[C@H](CCCCN)C(=O)N[C@H](C)C(=O)N[C@H](CC(C)C)C(=O)N[C@H](CO)C(=O)N[C@H](CCCCN)C(N)=O)[C@H](C)O)[C@H](C)O [D88(Lys^1-6 Lys-2)] (Ac-[dK][dL][dK][dS][dL][dL][dK][dT][dL][dS][dA][dA][dK][dK][dK][dK][dL][dA][dT][dL][dL][dK][dA][dL][dS][dK]-NH2)	0.7 µM (≈ 2.01 µg/mL)	0.7 µM (≈ 2.01 µg/mL)	0.3 µM (≈ 0.86 µg/mL)	0.3 µM (≈ 0.86 µg/mL)	0.3 µM (≈ 0.86 µg/mL)	0.3 µM (≈ 0.86 µg/mL)	0.4 µM (≈ 1.15 µg/mL)	–	–
CC(=O)N[C@H](CCCCN)C(=O)N[C@H](CC(C)C)C(=O)N[C@@H](CN)C(=O)N[C@H](CO)C(=O)N[C@H](CC(C)C)C(=O)N[C@H](CC(C)C)C(=O)N[C@@H](CN)C(=O)N[C@@H](C(=O)N[C@H](CC(C)C)C(=O)N[C@H](CO)C(=O)N[C@@H](CN)C(=O)N[C@H](C)C(=O)N[C@H](CCCCN)C(=O)N[C@H](C)C(=O)N[C@H](C)C(=O)N[C@H](CCCCN)C(=O)N[C@H](CC(C)C)C(=O)N[C@@H](CN)C(=O)N[C@@H](C(=O)N[C@H](CC(C)C)C(=O)N[C@H](CC(C)C)C(=O)N[C@@H](CN)C(=O)N[C@H](C)C(=O)N[C@H](CC(C)C)C(=O)N[C@H](CO)C(=O)N[C@@H](CN)C(N)=O)[C@H](C)O)[C@H](C)O [D105(Lys^1-6 Dap-1)] (Ac-[dK][dL][Dap][dS][dL][dL][Dap][dT][dL][dS][Dap][dA][dK][dA][dA][dK][dL][Dap][dT][dL][dL][Dap][dA][dL][dS][Dap]-NH2)	–	–	–	–	–	0.5 µM (≈ 1.31 µg/mL)	–	–	essentially no lysis
